Results reported in PubChem BioAssay AID1259407 (Chemical Carcinogenesis Research Information System (CCRIS), 2018).
Calls of active or inactive are those of the source. How the calls were made is not given here.

Tested on: CCRIS mutagenicity, Ames/micronucleus/aberration tests
Test: CCRIS mutagenicity studies

Measured: mutagenic call

CC[C@H](C)[C@H](NC(=O)[C@H](Cc1ccc(O)cc1)NC(=O)CNC(=O)[C@@H](NC(=O)[C@@H](NC(=O)[C@H](CS)NC(=O)[C@H](CC(N)=O)NC(=O)[C@H](CS)NC(=O)[C@H](C)NC(=O)[C@H](Cc1ccc(O)cc1)NC(=O)[C@H](CCCCN)NC(=O)[C@H](CC(=O)O)NC(=O)[C@H](CC(C)C)NC(=O)[C@H](C)NC(=O)[C@H](CCC(=O)O)NC(=O)[C@@H](NC(=O)[C@H](Cc1ccc(O)cc1)NC(=O)[C@H](CCSC)NC(=O)[C@H](CS)NC(=O)[C@@H](NC(=O)CNC(=O)[C@H](CC(=O)O)NC(=O)[C@H](Cc1cnc[nH]1)NC(=O)[C@H](CC(C)C)NC(=O)[C@H](CS)NC(=O)[C@H](Cc1ccc(O)cc1)NC(=O)CNC(=O)[C@H](CC(=O)O)NC(=O)[C@H](Cc1cnc[nH]1)NC(=O)[C@H](CO)NC(=O)[C@H](CC(C)C)NC(=O)[C@@H]1CCCN1C(=O)[C@H](CS)NC(=O)[C@H](CCC(=O)O)NC(=O)[C@H](CO)NC(=O)[C@H](CC(=O)O)NC(=O)[C@H](CO)NC(=O)[C@@H](N)CC(N)=O)C(C)C)[C@@H](C)CC)C(C)C)C(C)C)C(=O)NCC(=O)N[C@@H](CCC(=O)O)C(=O)N[C@@H](CCCNC(=N)N)C(=O)N[C@@H](CS)C(=O)N[C@@H](CCC(N)=O)C(=O)N[C@@H](Cc1ccc(O)cc1)C(=O)N[C@@H](CCCNC(=N)N)C(=O)N[C@@H](CC(=O)O)C(=O)N[C@@H](CC(C)C)C(=O)N[C@@H](CCCCN)C(=O)N[C@@H](Cc1c[nH]c2ccccc12)C(=O)N[C@@H](Cc1c[nH]c2ccccc12)C(=O)N[C@@H](CCC(=O)O)C(=O)N[C@@H](CC(C)C)C(=O)N[C@@H](CCCNC(=N)N)C(=O)O
inactive: Test System: AMES SALMONELLA TYPHIMURIUM, Strain/Indicator: TA98, Metabolic Activation: NONE, Method: STANDARD PLATE inactive; negative | Test System: AMES SALMONELLA TYPHIMURIUM, Strain/Indicator: TA98, Metabolic Activation: RAT, LIVER, S-9, PHENOBARBITAL AND 5,6-BENZOFLAVONE, Method: STANDARD PLATE inactive; negative | Test System: AMES SALMONELLA TYPHIMURIUM, Strain/Indicator: TA100, Metabolic Activation: NONE, Method: STANDARD PLATE inactive; negative | Test System: AMES SALMONELLA TYPHIMURIUM, Strain/Indicator: TA100, Metabolic Activation: RAT, LIVER, S-9, PHENOBARBITAL AND 5,6-BENZOFLAVONE, Method: STANDARD PLATE inactive; negative | Test System: AMES SALMONELLA TYPHIMURIUM, Strain/Indicator: TA1535, Metabolic Activation: NONE, Method: STANDARD PLATE inactive; negative | Test System: AMES SALMONELLA TYPHIMURIUM, Strain/Indicator: TA1535, Metabolic Activation: RAT, LIVER, S-9, PHENOBARBITAL AND 5,6-BENZOFLAVONE, Method: STANDARD PLATE inactive; negative | Test System: AMES SALMONELLA TYPHIMURIUM, Strain/Indicator: TA1537, Metabolic Activation: NONE, Method: STANDARD PLATE inactive; negative | Test System: AMES SALMONELLA TYPHIMURIUM, Strain/Indicator: TA1537, Metabolic Activation: RAT, LIVER, S-9, PHENOBARBITAL AND 5,6-BENZOFLAVONE, Method: STANDARD PLATE inactive; negative | Test System: E. COLI, Strain/Indicator: WP2 UVRA, Metabolic Activation: NONE, Method: STANDARD PLATE inactive; negative | Test System: E. COLI, Strain/Indicator: WP2 UVRA, Metabolic Activation: RAT, LIVER, S-9, PHENOBARBITAL AND 5,6-BENZOFLAVONE, Method: STANDARD PLATE inactive; negative

CC(=O)Nc1ccc(NC(C)=O)cc1
inactive: Test System: Ames Salmonella typhimurium, Strain/Indicator: TA98, Metabolic Activation: None, Method: Standard Plate inactive; negative | Test System: Ames Salmonella typhimurium, Strain/Indicator: TA100, Metabolic Activation: None, Method: Standard Plate inactive; negative | Test System: Ames Salmonella typhimurium, Strain/Indicator: TA102, Metabolic Activation: None, Method: Standard Plate inactive; negative | Test System: Ames Salmonella typhimurium, Strain/Indicator: TA1535, Metabolic Activation: None, Method: Standard Plate inactive; negative | Test System: Ames Salmonella typhimurium, Strain/Indicator: TA1537, Metabolic Activation: None, Method: Standard Plate inactive; negative
